Source: the NIST ThermoML archive (doi:10.1016/j.fluid.2014.09.014)

Experiment: refractive index (other wavelength) (dimensionless); xn = mol fraction of the nth substance listed
Conditions: 313.15 K, 101 kPa, Liquid, Standard Abbe refractometry

CC(C)OC(C)C [diisopropyl ether] + CC(C)O
refractive index
Conditions	Wavelength=587.6 nm	Wavelength=589.3 nm	Wavelength=632.8 nm	Wavelength=644 nm
x1 = 0.0277	–	1.36835	1.36708	1.36678
x1 = 0.0507	–	1.36828	1.367	1.3667
x1 = 0.051	–	1.36822	1.36696	1.36665
x1 = 0.0717	–	1.36787	1.36659	1.36629
x1 = 0.1528	–	1.36718	1.3659	1.36561
x1 = 0.1553	–	1.36718	1.3659	1.36561
x1 = 0.1938	–	1.36694	1.36566	1.36537
x1 = 0.2029	–	1.3664	1.36512	1.36482
x1 = 0.245	–	1.36591	1.36465	1.36436
x1 = 0.297	–	1.36507	1.36381	1.36351
x1 = 0.2973	–	1.36529	1.36401	1.36372
x1 = 0.3068	–	1.36504	1.36377	1.36347
x1 = 0.398	–	1.3637	1.36244	1.36213
x1 = 0.4609	–	1.36297	1.36172	1.36142
x1 = 0.5434	1.36211	1.36206	1.36081	1.36051
x1 = 0.6032	1.36136	1.3613	1.36007	1.35977
x1 = 0.6371	1.36099	1.36094	1.3597	1.3594
x1 = 0.701	1.36025	1.36019	1.35895	1.35865
x1 = 0.754	1.35981	1.35976	1.35851	1.35821
x1 = 0.791	1.35941	1.35936	1.35812	1.35782
x1 = 0.8296	1.35902	1.35897	1.35772	1.35742
x1 = 0.8864	1.3589	1.35885	1.35758	1.35729
x1 = 0.8903	1.35833	1.35827	1.35704	1.35674
x1 = 0.9113	1.35809	1.35802	1.35679	1.3565
x1 = 0.9547	1.35761	1.35756	1.35631	–
x1 = 0.973	1.35727	1.35722	1.35599	–
x1 = 0.9771	1.35715	1.3571	1.35587	–
x1 = 1	1.357	1.35694	1.35572	–
